Where a name gives a salt, the structure may show the parent alone.
Columns and labels:
Format in all cases: in vivo, Male Charles River mice (Swiss Strain)
[1] = test system: mice (p-phenylquinone-induced abdominal writhing); assay: P-phenylquinone-induced abdominal writhing test in mice; details: sc, 20 min pretreatment, p-phenylquinone 2 mg/Kg i.p.; for ED50: Mus musculus, 20 min, read-out: ANALGESIA M. WRITHING (GRADED) ED50
Method: A) P-phenylquinone-induced abdominal writhing test in mice
The methodology employed is based on that described by Sigmund et al, Proc. Soc. Exptl. Biol. 95, 729/1957, modified by Milne and Twomey, Agents and Actions, 10, 31/1980.
Male Charles River mice (Swiss Strain), 25-36 g body weight, were used. Animals were allowed food and water ad libitum and were randomized into groups of 10 prior to experimentation. Test compounds were dissolved in either distilled water or distilled water plus 0.1M AMS, and administered by the subcutaneous route in a final volume of 10 ml/Kg. Control animals received 10 ml/Kg of the appropriate vehicle alone. Following a pretreatment period of 20 min., mice were injected intraperitoneally with p-phenylquinone, 2 mg/Kg at 37° C. in a final volume of […]. […] During this period the number of abdominal writhing responses per animal were recorded where writhing consists of an intermittent contraction of the abdomen associated with hind leg extension.
The degree of antinociceptive protection afforded by the test compound was determined as the mean number of writhing responses observed in the treated group (T) expressed as a percentage of the mean number of writhing responses in the control group (C) according to the following formula:
[1-(T/C]×100% graded protection

mice (tail-flick) [2] = assay: Tail-flick test in mice (quantal protection); details: sc, 30 min pretreatment; for ED50: Mus musculus, 0.5 h, read-out: ANALGESIA M. TAIL-FLICK (QUANTAL) ED50; for ANALGESIA M. TAIL-FLICK (QUANTAL) ED50: 30 min
Method: (§1) B) Tail-flick test in mice
(§2) The methodology employed is based on that described by D'Amour and Smith, J. Pharmacol. Exp. Ther. 72, 74/1941.
(§3) Male Charles River mice (Swiss Strain), 22-34 g body weight were used. Animals were allowed food and water ad libitum and were randomized into groups of 10 prior to experimentation.
(§4) Test compounds were dissolved in either distilled water or distilled water plus 0.1M AMS and administered by the subcutaneous route in a final volume of 10 ml/Kg. Control animals received 10 ml/kg of the appropriate vehicle alone. Following a pretreatment period of 30 min., the mice were again placed under the heat source and the reaction tine re-determined.
Percentage quantal protection was determined as the number of mice in which the reaction time was doubled compared to pretreatment values, expressed as a percentage of the total number of mice in the group.

mice (tail-flick) [3] = assay: Duration of action, M. tail-flick (graded), % activity at MTFQ ED50; details: mouse, sc
Method: as §1, §2, §3
as §4, with “re-determined. […]” for “re-determined.”

Row | SMILES | ED50 [1] | ED50 (mice (tail-flick) [2]) | ANALGESIA M. TAIL-FLICK (QUANTAL) % protection at 10 mg (mice (tail-flick) [2]; mouse) | ANALGESIA M. TAIL-FLICK (QUANTAL) ED50 (mice (tail-flick) [2]; mouse) | DURATION OF ACTION M. TAIL-FLICK (GRADED) % ACTIVITY AT MTFQ ED50, 30' (mice (tail-flick) [3]) | DURATION OF ACTION M. TAIL-FLICK (GRADED) % ACTIVITY AT MTFQ ED50, 90' (mice (tail-flick) [3]) | ANALGESIA M. WRITHING (GRADED) ED50 ([1]; mouse) | ANALGESIA M. TAIL-FLICK (QUANTAL) % protection at 1.78 mg/Kg (mice (tail-flick) [2]; mouse, 1.78 mg/Kg)
1 | O=C(Cc1ccc(Cl)c(Cl)c1)N1CCC[C@@H](O)[C@@H]1CN1CCCC1 (relative stereo) [Example 7, 1-(3,4-dichlorophenyl)acetyl-2-(pyrrolidin-1-yl)methyl-3-hydroxy piperidine hydrochloride diastereoisomer A trans] | 0.141 mg/kg | 0.825 mg/kg |  |  |  |  |  | 
2 | O=C(Cc1ccc(Cl)c(Cl)c1)N1CCC[C@H](O)[C@@H]1CN1CCCC1 (relative stereo) [Example 8, 1-(3,4-dichlorophenyl)acetyl-2-(pyrrolidin-1-yl)methyl-3-hydroxy piperidine hydrochloride diastereoisomer B cis] |  |  | 20% |  |  |  |  | 
3 | CC1CCCN(C(=O)Cc2ccc(Cl)c(Cl)c2)C1CN1CCCC1 (single isomer, unassigned) [Example 1, 1-(3,4-dichlorophenyl)acetyl-2-(pyrrolidin-1-yl)methyl-3-methyl piperidine hydrochloride hemihydrate diasteroisomer A] | 0.093 mg/kg |  |  | 0.405 mg/kg | 87% | 68% |  | 
4 | CC1CCCN(C(=O)Cc2ccc(Cl)c(Cl)c2)C1CN1CCCC1 (single isomer, unassigned) [Example 2, 1-(3,4-dichlorophenyl)acetyl-2-(pyrrolidin-1-yl)methyl-3-methyl piperidine hydrochloride diasteroisomer B] |  |  |  | 0.147 mg/kg | 66% | 44% | 0.091 mg/kg | 
5 | CC1CCC(CN2CCCC2)N(C(=O)Cc2ccc(Cl)c(Cl)c2)C1 (single isomer, unassigned) [Example 4, 1-(3,4-dichlorophenylacetyl)-2-(pyrrolidin-1-yl)methyl-5-methyl piperidine hydrochloride diasteroisomer A] | 0.163 mg/kg | 0.749 mg/kg |  |  | 80% | 54% |  | 
6 | CC1CCN(C(=O)Cc2ccc(Cl)c(Cl)c2)C(CN2CCCC2)C1 (single isomer, unassigned; diastereoisomer a) [Example 3, 1-(3,4-dichlorophenylacetyl)-2-(pyrrolidin-1-yl)methyl-4-methyl piperidine hydrochloride hemihydrate diastereoisomer A] | 0.149 mg/kg | 0.202 mg/kg |  |  | 86% | 17% |  | 
7 | CC1CCCC(CN2CCCC2)N1C(=O)Cc1ccc(Cl)c(Cl)c1 (single isomer, unassigned; diastereoisomer a) [Example 5, 1-(3,4-dichlorophenyl)acetyl-2-(pyrrolidin-1-yl)methyl-6-methyl piperidine hydrochloride diastereoisomer A] | 0.03 mg/kg | 0.135 mg/kg |  |  | 83% | 42% |  | 
8 | CC1CCCC(CN2CCCC2)N1C(=O)Cc1ccc(Cl)c(Cl)c1 (single isomer, unassigned; diastereoisomer a) [Example 6, 1-(3,4-dichlorophenyl)acetyl-2-(pyrrolidin-1-yl)methyl-6-methyl piperidine hydrochloride hemihydrate Diastereoisomer A] |  |  |  |  | 77% | 35% |  | 60%
9 | CC1(C)CCCN(C(=O)Cc2ccc(Cl)c(Cl)c2)C1CN1CCCC1 (stereo not drawn) [Example 9, 1-(3,4-dichlorophenyl)acetyl-2-(pyrrolidin-1-yl)methyl-3,3-dimethyl piperidine hydrochloride] | 0.029 mg/kg | 0.136 mg/kg |  |  | 86% | 58% |  | 
10 | CC1(C)CCCN(C(=O)Cc2ccc(C(F)(F)F)cc2)C1CN1CCCC1 (stereo not drawn) [Example 10, 1-(4-trifluoromethylphenyl)acetyl-2-(pyrrolidin-1-yl)methyl-3,3-dimethyl piperidine hydrochloride] | 0.023 mg/kg | 0.116 mg/kg |  |  | 59% | 57% |  | 
11 | CC1(C)CCC(CN2CCCC2)N(C(=O)Cc2ccc(Cl)c(Cl)c2)C1 (stereo not drawn) [Example 11, 1-(3,4-dichlorophenyl)acetyl-2-(pyrrolidin-1-yl)methyl-5,5-dimethyl piperidine hydrochloride] | 0.605 mg/kg | 1.16 mg/kg |  |  | 59% | 57% |  | 
12 | CC1(C)CCCN(C(=O)Cc2ccc3c(c2)CCCC3)C1CN1CCCC1 (stereo not drawn) [Example 12, 1-(5,6,7,8-tetrahydronapht-2-yl)acetyl-2-(pyrrolidin-1-yl) methyl-3,3-dimethyl piperidine hydrochloride] | 0.273 mg/kg | 1.21 mg/kg |  |  | 67% | 65% |  | 
13 | CC1(C)CCCN(C(=O)Cc2ccc3c(c2)CCCC3=O)C1CN1CCCC1 (stereo not drawn) [Example 13, 1-[1-oxo-3,4-dihydro-(2H)-napht-6-yl]acetyl-2-(pyrrolidin-1-yl)methyl-3,3-dimethyl piperidine] |  |  | 60% |  |  |  |  | 
14 | CC1(C)CCN(C(=O)Cc2ccc(Cl)c(Cl)c2)C(CN2CCCC2)C1 (stereo not drawn) [Example 14, 1-(3,4-dichlorophenyl)acetyl-2-(pyrrolidin-1-yl)methyl-4,4-dimethyl piperidine hydrochloride] | 0.147 mg/kg | 0.824 mg/kg |  |  | 69% | 69% |  | 
15 | CC1(C)CCN(C(=O)Cc2ccc(C(F)(F)F)cc2)C(CN2CCCC2)C1 (stereo not drawn) [Example 15, 1-(4-trifluoromethylphenyl)acetyl-2-(pyrrolidin-1-yl)methyl-4,4-dimethyl piperidine hydrochloride] | 0.242 mg/kg | 1.8 mg/kg |  |  | 58% | 63% |  | 
